Experimental data reported in the NIST ThermoML archive (doi:10.1016/j.tca.2006.01.013).
Numbers after ± are expanded uncertainties.

Test: xn = mol fraction of the nth substance listed
Settings: 101 kPa, Liquid, Vibrating tube method

NCCN [ethane-1,2-diamine] + O
mass density [kg/m3]
Settings | 323.15 K | 328.15 K | 333.15 K | 338.15 K | 343.15 K | 348.15 K | 353.15 K
x2 = 0.0401 | 872.83 ± 0.44 | 868.06 ± 0.44 | 863.25 ± 0.44 | 858.43 ± 0.43 | 853.59 ± 0.43 | 848.71 ± 0.43 | 843.82 ± 0.43
x2 = 0.0797 | 876.97 ± 0.42 | 872.2 ± 0.42 | 867.42 ± 0.42 | 862.6 ± 0.42 | 857.77 ± 0.42 | 852.91 ± 0.42 | 848.01 ± 0.41
x2 = 0.1199 | 881.48 ± 0.41 | 876.73 ± 0.41 | 871.95 ± 0.4 | 867.15 ± 0.4 | 862.33 ± 0.4 | 857.47 ± 0.4 | 852.59 ± 0.4
x2 = 0.1598 | 886.3 ± 0.39 | 881.56 ± 0.39 | 876.8 ± 0.39 | 872.01 ± 0.39 | 867.2 ± 0.39 | 862.35 ± 0.39 | 857.48 ± 0.38
x2 = 0.2003 | 891.39 ± 0.38 | 886.66 ± 0.37 | 881.91 ± 0.37 | 877.13 ± 0.37 | 872.32 ± 0.37 | 867.48 ± 0.37 | 862.61 ± 0.37
x2 = 0.25 | 897.71 ± 0.36 | 892.99 ± 0.36 | 888.25 ± 0.35 | 883.48 ± 0.35 | 878.68 ± 0.35 | 873.85 ± 0.35 | 868.98 ± 0.35
x2 = 0.2999 | 904.5 ± 0.34 | 899.79 ± 0.34 | 895.05 ± 0.34 | 890.29 ± 0.34 | 885.49 ± 0.33 | 880.67 ± 0.33 | 875.81 ± 0.33
x2 = 0.3497 | 911.88 ± 0.32 | 907.18 ± 0.32 | 902.45 ± 0.32 | 897.69 ± 0.32 | 892.89 ± 0.32 | 888.07 ± 0.32 | 883.2 ± 0.32
x2 = 0.3998 | 919.54 ± 0.3 | 914.84 ± 0.3 | 910.11 ± 0.3 | 905.35 ± 0.3 | 900.55 ± 0.3 | 895.73 ± 0.3 | 890.86 ± 0.3
x2 = 0.4504 | 927.55 ± 0.28 | 922.85 ± 0.28 | 918.12 ± 0.28 | 913.36 ± 0.28 | 908.57 ± 0.28 | 903.74 ± 0.28 | 898.87 ± 0.28
x2 = 0.5001 | 935.8 ± 0.27 | 931.11 ± 0.27 | 926.38 ± 0.27 | 921.62 ± 0.27 | 916.83 ± 0.27 | 912 ± 0.27 | 907.14 ± 0.26
x2 = 0.5499 | 944.38 ± 0.24 | 939.7 ± 0.24 | 934.98 ± 0.24 | 930.23 ± 0.24 | 925.44 ± 0.24 | 920.62 ± 0.24 | 915.76 ± 0.24
x2 = 0.5998 | 952.77 ± 0.22 | 948.12 ± 0.22 | 943.43 ± 0.22 | 938.7 ± 0.22 | 933.95 ± 0.22 | 929.15 ± 0.22 | 924.32 ± 0.22
x2 = 0.6499 | 960.7 ± 0.19 | 956.11 ± 0.19 | 951.49 ± 0.2 | 946.83 ± 0.2 | 942.13 ± 0.2 | 937.39 ± 0.2 | 932.61 ± 0.2
x2 = 0.7004 | 967.91 ± 0.17 | 963.45 ± 0.17 | 958.96 ± 0.17 | 954.42 ± 0.17 | 949.83 ± 0.17 | 945.19 ± 0.17 | 940.53 ± 0.17
x2 = 0.7499 | 973.34 ± 0.14 | 969.1 ± 0.15 | 964.81 ± 0.15 | 960.46 ± 0.15 | 956.08 ± 0.15 | 951.64 ± 0.15 | 947.14 ± 0.15
x2 = 0.8 | 976.78 ± 0.12 | 972.86 ± 0.12 | 968.88 ± 0.12 | 964.84 ± 0.12 | 960.73 ± 0.13 | 956.56 ± 0.13 | 952.33 ± 0.13
x2 = 0.84 | 978.35 ± 0.1 | 974.76 ± 0.1 | 971.09 ± 0.11 | 967.34 ± 0.11 | 963.52 ± 0.11 | 959.62 ± 0.11 | 955.65 ± 0.11
x2 = 0.88 | 979.3 ± 0.09 | 976.06 ± 0.09 | 972.74 ± 0.09 | 969.32 ± 0.09 | 965.81 ± 0.09 | 962.21 ± 0.09 | 958.53 ± 0.1
x2 = 0.9193 | 980.41 ± 0.07 | 977.53 ± 0.07 | 974.54 ± 0.08 | 971.43 ± 0.08 | 968.22 ± 0.08 | 964.91 ± 0.08 | 961.5 ± 0.08
x2 = 0.9599 | 982.91 ± 0.06 | 980.35 ± 0.06 | 977.65 ± 0.06 | 974.83 ± 0.07 | 971.88 ± 0.07 | 968.82 ± 0.07 | 965.65 ± 0.07
